Counter-ions that a name gives are not always drawn. Like-named read-outs stand apart in the source and are kept apart here.
Target: T1, human-derived receptor TLR7 (Homo sapiens, UniProt Q9NYK1)
T1 construct: host or cells: HEK-Blue hTLR7 cells (HEK293-derived reporter line)
T1 sequence (Q9NYK1 27-1049): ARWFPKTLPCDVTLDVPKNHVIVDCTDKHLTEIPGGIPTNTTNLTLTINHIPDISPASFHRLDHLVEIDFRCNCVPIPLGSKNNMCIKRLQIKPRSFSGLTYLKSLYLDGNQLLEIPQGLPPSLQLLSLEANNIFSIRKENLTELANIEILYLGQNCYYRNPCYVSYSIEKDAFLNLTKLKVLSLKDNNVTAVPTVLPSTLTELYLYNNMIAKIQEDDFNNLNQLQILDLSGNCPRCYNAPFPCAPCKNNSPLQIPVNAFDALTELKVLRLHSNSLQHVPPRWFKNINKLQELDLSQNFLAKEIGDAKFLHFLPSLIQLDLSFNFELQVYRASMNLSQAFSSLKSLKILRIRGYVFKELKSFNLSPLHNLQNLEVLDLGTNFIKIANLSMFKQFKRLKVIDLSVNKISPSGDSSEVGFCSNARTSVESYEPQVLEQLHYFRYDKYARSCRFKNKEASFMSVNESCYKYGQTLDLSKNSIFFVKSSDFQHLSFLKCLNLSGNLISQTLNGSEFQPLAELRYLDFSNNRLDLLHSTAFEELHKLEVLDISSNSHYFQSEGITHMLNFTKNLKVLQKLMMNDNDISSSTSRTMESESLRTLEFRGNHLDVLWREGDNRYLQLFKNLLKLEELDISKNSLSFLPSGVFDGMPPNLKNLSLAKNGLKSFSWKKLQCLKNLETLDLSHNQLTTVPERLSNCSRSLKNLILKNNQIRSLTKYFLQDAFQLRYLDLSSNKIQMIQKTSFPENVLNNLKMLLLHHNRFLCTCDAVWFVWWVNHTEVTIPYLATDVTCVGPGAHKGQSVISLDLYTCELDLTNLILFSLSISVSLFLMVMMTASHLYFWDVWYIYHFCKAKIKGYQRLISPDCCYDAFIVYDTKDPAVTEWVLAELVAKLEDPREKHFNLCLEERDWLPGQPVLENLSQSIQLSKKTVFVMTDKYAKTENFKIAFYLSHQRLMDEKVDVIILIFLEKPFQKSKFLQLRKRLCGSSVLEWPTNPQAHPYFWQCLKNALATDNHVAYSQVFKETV
Test: Assay on agonistic activity for human-derived receptor TLR7 (HEK-Blue hTLR7 cells, HEK-Blue Detection Medium)
Assay type: cell-based
Settings: 16 h incubation, absorbance at 655 nm
Procedure: HEK-Blue™ hTLR7 cells (InvivoGen, hkb-htlr7) were cultured in a DMEM complete medium (Gibco, 12100) containing 10% FBS (Invitrogen, 10099141), 1% P/S (Invitrogen, 15140122), 10 μg/mL Blasticidin (InvivoGen, ant-bl-1), 100 μg/mL Zeocin (InvivoGen, ant-zn-1), and 100 μg/mL Normocin (InvivoGen, ant-nr-1). The cells were cultured in an incubator at 37° C. with 5% CO2. When HEK-Blue™ hTLR7 cells reached a growth density of 70%-80%, cell passage was needed.
The agonistic activity for the human-derived receptor TLR7 by HEK-Blue™ hTLR7 cells was assayed by HEK-Blue™ Detection Medium (InvivoGen, hd-det2). First, a bag of HEK-Blue™ Detection Medium powder was dissolved in 50 mL of ultra-pure sterile water for complete dissolution, and then the dissolved medium was filtered into a new 50 mL centrifuge tube through a 0.22 μm filter. Finally, antibiotics were added into the filtered detection medium until the final concentration was 1% for P/S and 100 μg/mL for Normocin. HEK-Blue™ Detection Medium was pre-heated to 37° C. in advance on the day of the assay on the activity for the TLR7 receptor, and the temperature was always maintained at 37° C.
The compound powder was dissolved in 100% DMSO (Sigma, D2650-100ML) to obtain a 10 mM stock solution, and the compound was completely dissolved by shaking with an oscillator. The stock solution of the compound was subjected to a 5-fold dilution to 2 mM with 100% DMSO. This was followed by a 3-fold serial dilution for a total of 8 concentration gradients. Then, each of the concentration gradients was subjected to a 20-fold dilution to 100 μM, 33.3 μM, 11.1 μM, 3.7 μM, 1.23 μM, […], 0.114 μM, and 0.05 μM using HEK-Blue™ Detection Medium. 20 μL of each of the dilutions was added to a 96-well cell culture plate (Corning, 3599).
On the day of the assay on the agonistic activity for the human-detived receptor TLR7, HEK-Blue™ hTLR7 cells has a growth density of 70%-80%, and the cell medium was removed. 1 mL of cell dissociation buffer (Gibco, 13151-014) was added to each 100 mm cell culture dish, and the cells were incubated in an incubator at 37° C. for 5 min. The cells were pipetted using a DMEM cell medium to obtain a single cell suspension, which was then centrifuged at 1000 rpm for 10 min to collect the cell pellet. The cell pellet was resuspended with HEK-Blue™ Detection Medium pre heated to 37° C. The cells were counted and diluted to 220,000 cells/mL. Finally, 180 μL of cell suspension (40,000 cells/well) was added to each well of the 96-well cell culture plate to which the compound had been added, and the cell suspension was mixed with the compound using a pipettor. Final concentrations of the compound were 10 μM, 3.3 μM, 1.1 μM, 0.37 μM, 0.12 μM, 0.04 μM, 0.01 μM, and 0.005 μM. After incubation in an incubator at 37° C. for 16 h, the absorbance was read at 655 nm using an M5e microplate reader (MD, USA).
The EC50 of the compound was calculated using the software GraphPad Prism (GraphPad Software, USA). The background reading of the detection culture was subtracted from the absorbance readings at 655 nm of all wells of the 96-well plate, the ratio of each well to the negative control well (the well without the compound) was calculated, and then the percentage of the ratio of each well to the positive control well (the well treated with 10 μM positive compound), i.e., the percentage of activity, was calculated. Finally, the sigmoidal dose-response (variable slope) curve between the percentage of activity and the concentration of the compound was calculated using the software GraphPad Prism to calculate the EC50 of the compound. […]

Row | EC50 (read-out: hTLR7 EC50) [nM] | EC50 (read-out: EC50) [nM] | Compound
1 | > 10000 | – | COc1nc2c(N)nc3ccccc3c2n1Cc1ccc(CN2CCCC2)cc1 [Comparative Example 1, 2-methoxy-1-((4-((pyrrolidin-1-yl)methyl)phenyl)methyl)-1H-imidazo[4,5-c]quinolin-4-amine trifluoroacetate, reference compound]
2 | 55 | < 50 | CSc1nc2c(N)nc3ccccc3c2n1Cc1ccc(CN2CCCC2)cc1 [Example 40, 2-(methylthio)-1-(4-(pyrrolidin-1-ylmethyl)benzyl)-1H-imidazo[4,5-c]quinoline-4-amine]
3 | 43.6 | < 50 | CSc1nc2c(N)nc3ccccc3c2n1Cc1ccc(N2CCN(C)CC2)nc1 [Example 199]
4 | 28.4 | < 50 | COc1cc(CN(C)C)ccc1Cn1c(SC)nc2c(N)nc3ccccc3c21 [Example 240]
